Measured values: patent US10266526B2, “Substituted 1,2,3-triazoles as SMYD inhibitors for treating cancer” (EPIZYME, INC., priority 2014, dated 2019)

The compounds below were run against SMYD2 (Homo sapiens (Human), UniProt Q9NRG4) (assay: SMYD2 biochemical assay (SMYD2 enzyme assay on peptide substrate, 3H-SAM Flashplate)). Details: not given.
SMYD2, sequence (Q9NRG4 whole entry): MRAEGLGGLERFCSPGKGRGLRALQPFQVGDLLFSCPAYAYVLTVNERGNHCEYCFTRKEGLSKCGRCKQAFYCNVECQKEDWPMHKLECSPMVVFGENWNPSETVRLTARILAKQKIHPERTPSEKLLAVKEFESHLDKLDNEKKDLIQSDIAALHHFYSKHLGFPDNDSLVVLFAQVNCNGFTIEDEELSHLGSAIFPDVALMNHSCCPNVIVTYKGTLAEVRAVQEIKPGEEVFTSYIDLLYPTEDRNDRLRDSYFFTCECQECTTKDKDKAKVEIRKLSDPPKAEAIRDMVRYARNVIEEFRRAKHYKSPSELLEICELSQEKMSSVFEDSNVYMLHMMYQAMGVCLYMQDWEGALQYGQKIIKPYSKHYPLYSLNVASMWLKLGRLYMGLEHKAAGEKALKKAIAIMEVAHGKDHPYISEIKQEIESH

| IC50 [nM] | SMILES |
| --- | --- |
| 18900 | C[C@H](c1ccccc1)N1C[C@@H](NC(=O)c2cn(C3CC3)nn2)C1(C)C (racemic) [compound 984, rac-1-cyclopropyl-N-((R)-2,2-dimethyl-1-((R)-1-phenylethyl)azetidin-3-yl)-1H-1,2,3-triazole-4-carboxamide] |

Same assay, conditions: read-out: SMYD2 Biochem IC50; IC50 values are an average of n = 1 to n = 50

| IC50 [nM] | SMILES |
| --- | --- |
| 6960 | O=C(NC1CN(C2CCc3cc(F)ccc32)C1)c1cn(C2CC2)nn1 (stereo not drawn) [compound 740, 1-cyclopropyl-N-[1-(5-fluoro-2,3-dihydro-1H-inden-1-yl)azetidin-3-yl]-1H-1,2,3-triazole-4-carboxamide] |
| > 50000 | CC(c1ccc(C(F)(F)F)cc1)N1CC(NC(=O)c2cn(C3CC3)nn2)C1 (stereo not drawn) [compound 680, 1-cyclopropyl-N-(1-{1-[4-(trifluoromethyl)phenyl]ethyl}azetidin-3-yl)-1H-1,2,3-triazole-4-carboxamide] |
| 57.8 | C[C@@H](c1cccc(OCCO)c1Cl)N1CC(NC(=O)c2cn(C3CC3)nn2)C1 (single isomer, unassigned) [compound 831] |
| 2330 | CNCCOc1cccc(CN2CC(NC(=O)c3cn(C4CC4)nn3)C2)c1 [compound 735, 1-cyclopropyl-N-[1-({3-[2-(methylamino)ethoxy]phenyl}methyl)azetidin-3-yl]-1H-1,2,3-triazole-4-carboxamide] |
| > 50000 | O=C(NC1CN(Cc2cncn2Cc2ccccc2)C1)c1cn(C2CC2)nn1 [compound 809, N-{1-[(1-benzyl-1H-imidazol-5-yl)methyl]azetidin-3-yl}-1-cyclopropyl-1H-1,2,3-triazole-4-carboxamide] |
| 1030 | O=C(NC1CN(Cc2ccc(OCc3ccncc3)cc2)C1)c1cn(C2CC2)nn1 [compound 828, 1-cyclopropyl-N-(1-{[4-(pyridin-4-ylmethoxy)phenyl]methyl}azetidin-3-yl)-1H-1,2,3-triazole-4-carboxamide] |
| 88 | COc1ccc(C(C)N2CC(NC(=O)c3cn(C4CC4)nn3)C2)c(Cl)c1 (stereo not drawn) [compound 845, N-{1-[1-(2-chloro-4-methoxyphenyl)ethyl]azetidin-3-yl}-1-cyclopropyl-1H-1,2,3-triazole-4-carboxamide] |
| 23300 | C[C@H](c1ccccc1)N1CC(NC(=O)c2cn(C3CC3)nn2)C1 [compound 720, 1-cyclopropyl-N-{1-[(1R)-1-phenylethyl]azetidin-3-yl}-1H-1,2,3-triazole-4-carboxamide] |
| 1270 | COc1ccnc(C(C)N2CC(NC(=O)c3cn(C4CC4)nn3)C2)c1 (stereo not drawn) [compound 724, 1-cyclopropyl-N-{1-[1-(4-methoxypyridin-2-yl)ethyl]azetidin-3-yl}-1H-1,2,3-triazole-4-carboxamide] |
| 9600 | CC(C)N1CC(NC(=O)c2cn(C3CC3)nn2)C1(C)C (stereo not drawn) [compound 799, 1-cyclopropyl-N-[2,2-dimethyl-1-(propan-2-yl)azetidin-3-yl]-1H-1,2,3-triazole-4-carboxamide] |
| 541 | O=C(NC1CN(Cc2ccccc2)C1)c1cc(C2CC2)cnn1 [compound 651, N-(1-benzylazetidin-3-yl)-5-cyclopropylpyridazine-3-carboxamide] |
| 28 | COc1ccc(Cn2cc(CN3CC(NC(=O)c4cn(C5CC5)nn4)C3)cn2)cc1 [compound 932, 1-cyclopropyl-N-(1-((1-(4-methoxybenzyl)-1H-pyrazol-4-yl)methyl)azetidin-3-yl)-1H-1,2,3-triazole-4-carboxamide] |
| 598 | CCN1CC(NC(=O)c2cc(C3CC3)cnn2)C1 [compound 814, 5-cyclopropyl-N-(1-ethylazetidin-3-yl)pyridazine-3-carboxamide] |
| 3580 | COCCOc1cccc(C(C)N2CC(NC(=O)c3cn(C4CC4)nn3)C2)c1 (stereo not drawn) [compound 702, 1-cyclopropyl-N-(1-{1-[3-(2-methoxyethoxy)phenyl]ethyl}azetidin-3-yl)-1H-1,2,3-triazole-4-carboxamide] |
| 65 | O=C(NC1CN(Cc2cnn(Cc3ccccc3)c2)C1)c1nnc(C2CC2)o1 [compound 1021, N-(1-((1-benzyl-1H-pyrazol-4-yl)methyl)azetidin-3-yl)-5-cyclopropyl-1,3,4-oxadiazole-2-carboxamide] |
| 32300 | COc1c(CN)cccc1CN1CC(NC(=O)c2cn(C3CC3)nn2)C1 [compound 794, N-(1-{[3-(aminomethyl)-2-methoxyphenyl]methyl}azetidin-3-yl)-1-cyclopropyl-1H-1,2,3-triazole-4-carboxamide] |
| 391 | CN1CC(NC(=O)c2cc(C3CC3)cnn2)C1 [compound 825, 5-cyclopropyl-N-(1-methylazetidin-3-yl)pyridazine-3-carboxamide] |
| 2470 | CCC(c1ccccn1)N1CC(NC(=O)c2cn(C3CC3)nn2)C1 (stereo not drawn) [compound 791, 1-cyclopropyl-N-{1-[1-(pyridin-2-yl)propyl]azetidin-3-yl}-1H-1,2,3-triazole-4-carboxamide] |
| 1940 | CC(c1ncccn1)N1CC(NC(=O)c2cn(C3CC3)nn2)C1 (stereo not drawn) [compound 715, 1-cyclopropyl-N-{1-[1-(pyrimidin-2-yl)ethyl]azetidin-3-yl}-1H-1,2,3-triazole-4-carboxamide] |

| IC50 [nM] | SMILES |
| --- | --- |
| 18700 | CC(C)N1CCCC(NC(=O)c2cc(C3CC3)cnn2)C1 (stereo not drawn) [compound 815, 5-cyclopropyl-N-[1-(propan-2-yl)piperidin-3-yl]pyridazine-3-carboxamide] |
| 2620 | O=C(NC1CN(Cc2cn(CCc3ccccc3)cn2)C1)c1cn(C2CC2)nn1 [compound 782, 1-cyclopropyl-N-(1-{[1-(2-phenylethyl)-1H-imidazol-4-yl]methyl}azetidin-3-yl)-1H-1,2,3-triazole-4-carboxamide] |
| > 50000 | C[C@H](c1ccccc1)N1CC(NC(=O)c2ncc(C3CC3)[nH]2)C1 [compound 915, 5-cyclopropyl-N-{1-[(1R)-1-phenylethyl]azetidin-3-yl}-1H-imidazole-2-carboxamide] |
| 1550 | O=C(NC1CN(CCc2ccccc2)C1)c1cn(C2CC2)nn1 [compound 673, 1-cyclopropyl-N-[1-(2-phenylethyl)azetidin-3-yl]-1H-1,2,3-triazole-4-carboxamide] |
| 787 | CCC(c1ccc(F)cc1)N1CC(NC(=O)c2cn(C3CC3)nn2)C1 (stereo not drawn) [compound 694, 1-cyclopropyl-N-{1-[1-(4-fluorophenyl)propyl]azetidin-3-yl}-1H-1,2,3-triazole-4-carboxamide] |
| 16.4 | O=C(NC1CN(Cc2cnn(Cc3ccccc3)c2)C1)c1cn(C2CC2)nn1 [compound 792, N-{1-[(1-benzyl-1H-pyrazol-4-yl)methyl]azetidin-3-yl}-1-cyclopropyl-1H-1,2,3-triazole-4-carboxamide] |
| 1220 | Cn1cc(CN2CC(NC(=O)c3cn(C4CC4)nn3)C2)c(Cl)n1 [compound 811, N-{1-[(3-chloro-1-methyl-1H-pyrazol-4-yl)methyl]azetidin-3-yl}-1-cyclopropyl-1H-1,2,3-triazole-4-carboxamide] |
| 1700 | O=C(NC1CN(C(c2ccc(F)cc2)C2CC2)C1)c1cn(C2CC2)nn1 (stereo not drawn) [compound 786, 1-cyclopropyl-N-{1-[cyclopropyl(4-fluorophenyl)methyl]azetidin-3-yl}-1H-1,2,3-triazole-4-carboxamide] |
| 1700 | CC(c1ccc(OCC(F)(F)F)cc1)N1CC(NC(=O)c2cn(C3CC3)nn2)C1 (stereo not drawn) [compound 968, 1-cyclopropyl-N-(1-(1-(4-(2,2,2-trifluoroethoxy)phenyl)ethyl)azetidin-3-yl)-1H-1,2,3-triazole-4-carboxamide] |
| 150 | O=C(NC1CN(Cc2ccc(OCc3ccccc3)cc2)C1)c1cc(C2CC2)ccn1 [compound 967, N-(1-(4-(benzyloxy)benzyl)azetidin-3-yl)-4-cyclopropylpicolinamide] |
| 1170 | CCCN1CC(NC(=O)c2cn(C3CC3)nn2)C1 [compound 660, 1-cyclopropyl-N-(1-propylazetidin-3-yl)-1H-1,2,3-triazole-4-carboxamide] |
| 1280 | COc1cccc(O)c1C(C)N1CC(NC(=O)c2cn(C3CC3)nn2)C1 (stereo not drawn) [compound 750, 1-cyclopropyl-N-{1-[1-(2-hydroxy-6-methoxyphenyl)ethyl]azetidin-3-yl}-1H-1,2,3-triazole-4-carboxamide] |
| 785 | COc1ccc(C(C)N2CC(NC(=O)c3cn(C4CC4)nn3)C2)cc1 (stereo not drawn) [compound 821, 1-cyclopropyl-N-{1-[1-(4-methoxyphenyl)ethyl]azetidin-3-yl}-1H-1,2,3-triazole-4-carboxamide] |
| 3220 | O=C(NC1CN(Cc2ccc(OCCCO)cc2)C1)c1cn(C2CC2)nn1 [compound 823, 1-cyclopropyl-N-(1-{[4-(3-hydroxypropoxy)phenyl]methyl}azetidin-3-yl)-1H-1,2,3-triazole-4-carboxamide] |
| 1900 | O=C(NC1CN(Cc2ccc(OCc3nncs3)cc2)C1)c1cn(C2CC2)nn1 [compound 988, N-(1-(4-((1,3,4-thiadiazol-2-yl)methoxy)benzyl)azetidin-3-yl)-1-cyclopropyl-1H-1,2,3-triazole-4-carboxamide] |
| 1970 | CC(O)COc1ccc(CN2CC(NC(=O)c3cn(C4CC4)nn3)C2)cc1 (stereo not drawn) [compound 822, 1-cyclopropyl-N-(1-{[4-(2-hydroxypropoxy)phenyl]methyl}azetidin-3-yl)-1H-1,2,3-triazole-4-carboxamide] |
| 2000 | O=C(NC1CN(Cc2cnn(CC3CCOC3)c2)C1)c1cn(C2CC2)nn1 (stereo not drawn) [compound 950, 1-cyclopropyl-N-(1-((1-((tetrahydrofuran-3-yl)methyl)-1H-pyrazol-4-yl)methyl)azetidin-3-yl)-1H-1,2,3-triazole-4-carboxamide] |
| 2070 | COCCOc1ccc(CN2CC(NC(=O)c3cn(C4CC4)nn3)C2)cc1 [compound 830, 1-cyclopropyl-N-(1-{[4-(2-methoxyethoxy)phenyl]methyl}azetidin-3-yl)-1H-1,2,3-triazole-4-carboxamide] |
| 5100 | CC(c1cc(Cl)ccc1OC(F)F)N1CC(NC(=O)c2cn(C3CC3)nn2)C1 (stereo not drawn) [compound 970, N-(1-(1-(5-chloro-2-(difluoromethoxy)phenyl)ethyl)azetidin-3-yl)-1-cyclopropyl-1H-1,2,3-triazole-4-carboxamide] |
